Reference: patent publication US7157561B2, “Methods of inhibiting transmission of a costimulatory signal of lymphocytes” (Roche Diagnostics Operations, Inc., priority 2001, dated 2007)

Columns and labels:
antibody ATZ 3.1 = assay: Antibody specificity ELISA (competition of free drug with atazanavir-BSA conjugate), antibody ATZ 3.1; type: binding, mouse; details: for ED50 (M/L): free drug concentration giving 50% of binding in absence of free drug, 4-parameter logistic fit; for % Cross Rx: relative to atazanavir ED50
Protocol: (§1) Screening of growing hybridomas was carried out by an ELISA using the atazanavir-BSA conjugate (7) and free atazanavir. Microplates were coated with 50 μL atazanavir-BSA conjugate at 1 μg/mL in 0.1 M carbonate buffer, pH 9.5 for 1 hour at 37° C. (humidified). The plates were then emptied and filled with a post-coat solution consisting of Tris buffer, 1% gelatin hydrolysate, 2% sucrose, and 0/17% TWEEN 20 (all from Sigma Chemical Co.). The plates were incubated for an additional 1 hour at 37° C. (humidified) after which they were washed with phosphate-buffered saline containing 0.1% TWEEN 20. The plates were then filled with a 2% sucrose solution in 0.15 M Tris, pH 7.2–7.4 briefly, then emptied and allowed to air dry at room temperature. When dried, the plates were packed in zip-lock bags containing several desiccant pillows, sealed, and stored at 4° C. until use.
(§2) When the growing clones were judged ready for testing, 25 μL of supernatant from the wells were taken and transferred to 96-well flexible plates. Culture medium was added to each well to provide a 1:10 dilution of the media sample. Two atazanavir-BSA coated wells were used for each culture well tested. One well received 25 μL of PBS buffer, the other received 25 μL of PBS containing atazanavir drug at a concentration of 800 ng/ml. Twenty-five microliters of the diluted sample were transferred to each of two of the coated wells above. The plates were incubated covered for 1 hour at 37° C., then washed with PBS-TWEEN. The wells were then filled with 100 μL of goat anti-mouse IgG-HRP conjugate (Zymed Labs) diluted 1:5,000 in PBS-TWEEN and the plates re-incubated for 1 hour. The plates were then washed again, and 100 μL of K-BLUE SUBSTRATE (Neogen Corp) were added to each well. This was allowed to develop for 5–15 minutes, the reaction being stopped by the addition of 100 μL of 1 N HCl. Color was read via a microplate reader at 450 nm and collected by computer for analysis. Criteria for selection were binding to the well in which the PBS was added and significant inhibition of binding in the well receiving the free drug.
(§3) The antibody containing culture supernatants from the expansion cultures were subjected to specificity analysis by the following procedure. First, the titer appropriate for analysis was determined by dilution analysis. A dilution of antibody providing for approximately 50% of maximal binding was selected for proceeding to the next step. Second, binding to the atazanavir-BSA conjugate was examined at the above antibody dilution, in the presence of varying amounts of seven HIV protease inhibitor drugs. The data was subjected to analysis by non-linear regression curve fitting to a 4-parameter logistic function. That parameter which describes the concentration of the free drug which corresponds to 50% of the binding in the absence of free drug is termed the ED50 for that drug. The specificity of the antibody can thus be described by comparing the ED50 of the cognate drug, atazanavir, or atz ED50 with the other values for other drugs fitted from those data according to the following equation (using nelfinavir data for this example):
(§4) [formula] The four parameter logistic function used is
(§5) [formula] where S is the curvature parameter, ODmax is the optical density with 0 drug concentration, ODmin is the optical density of the background of the instrument, and ODx is the optical density observed at drug concentration X in moles/liter (M/L).
(§6) Atazanavir metabolite is 4-pyridin-2-yl-benzoic acid (Synchem, Inc.).

antibody ATZ 4.1 = assay: Antibody specificity ELISA (competition of free drug with atazanavir-BSA conjugate), antibody ATZ 4.1; type: binding, mouse; details: for ED50 (M/L): free drug concentration giving 50% of binding in absence of free drug, 4-parameter logistic fit; for % Cross Rx: relative to atazanavir ED50
Protocol: as §1, §2, §3, §4, §5, §6

Structure (SMILES)	ED50 (M/L) (antibody ATZ 3.1)	% Cross Rx (antibody ATZ 3.1)	ED50 (M/L) (antibody ATZ 4.1)	% Cross Rx (antibody ATZ 4.1)
CC(C)(C)NC(=O)[C@@H]1CN(Cc2cccnc2)CCN1C[C@@H](O)C[C@@H](Cc1ccccc1)C(=O)N[C@H]1c2ccccc2C[C@H]1O [Indinavir, indinavir]	>2 × 10^−6 M/L	<1%	>2 × 10^−6 M/L	<1%
CC(C)CN(C[C@@H](O)[C@H](Cc1ccccc1)NC(=O)O[C@H]1CCOC1)S(=O)(=O)c1ccc(N)cc1 [Amprenavir, amprenavir]	>2 × 10^−6 M/L	<1%	>2 × 10^−6 M/L	<1%
COC(=O)N[C@H](C(=O)N[C@@H](Cc1ccccc1)[C@@H](O)CN(Cc1ccc(-c2ccccn2)cc1)NC(=O)[C@@H](NC(=O)OC)C(C)(C)C)C(C)(C)C [Atazanavir, atazanavir]	7 × 10^−7 M/L	100%	4.4 × 10^−6 M/L	100%
Cc1cccc(C)c1OCC(=O)N[C@@H](Cc1ccccc1)[C@@H](O)C[C@H](Cc1ccccc1)NC(=O)[C@H](C(C)C)N1CCCNC1=O [Lopinavir, lopinavir]	>2 × 10^−6 M/L	<1%	>2 × 10^−6 M/L	<1%
CC(C)c1nc(CN(C)C(=O)N[C@H](C(=O)N[C@@H](Cc2ccccc2)C[C@H](O)[C@H](Cc2ccccc2)NC(=O)OCc2cncs2)C(C)C)cs1 [Ritonavir, ritonavir]	>2 × 10^−6 M/L	<1%	>2 × 10^−6 M/L	<1%
CC(C)(C)NC(=O)[C@@H]1C[C@@H]2CCCC[C@@H]2CN1C[C@@H](O)[C@H](Cc1ccccc1)NC(=O)[C@H](CC(N)=O)NC(=O)c1ccc2ccccc2n1 [Saquinavir, saquinavir]	>2 × 10^−6 M/L	<1%	>2 × 10^−6 M/L	<1%
Cc1c(O)cccc1C(=O)N[C@@H](CSc1ccccc1)[C@H](O)CN1C[C@H]2CCCC[C@H]2C[C@H]1C(=O)NC(C)(C)C [Nelfinavir, nelfinavir]	>2 × 10^−6 M/L	<1%	>2 × 10^−6 M/L	<1%
O=C(O)c1ccc(-c2ccccn2)cc1 [Atazanavir metabolite, 4-pyridin-2-yl-benzoic acid]	>2 × 10^−6 M/L	<1%	>2 × 10^−6 M/L	<1%
